Source: US5462861A, “Method for improving enzyme activities with noble gases” (American Air Liquide, Chicago Research Center, priority 1993, dated 1995)

Tests used:
[1] = tested on: phenylalanine ammonia lyase; assay: Phenylalanine ammonia lyase activity under gas; type: biochemical; conditions: for effect on phenylalanine ammonia lyase: head not printed; for effect on phenylalanine ammonia-lyase: FIG. 32
Description: (§1) Solution preparation: Optimized w/v solutions are prepared by diluting the enzyme (units/ml) and the substrate (μg/ml) in appropriate buffer (optimized pH and molarity for enzymes). The solutions are used for gas experiments at once to avoid loss of activity. Various enzyme and substrate concentrations and inhibitors may be employed. Physical parameters are varied as required.
(§2) Preparation of samples: Cuvets are filled with 2 ml of substrate solution by means of a gas-tight syringe. Gas-tight serum vials are filled with enzyme and solvent. Sufficient gas is consecutively bubbled in the cuvets and serum vials, with a 1-hr wait between injections to maximize equilibration of gas. All syringes and dead spaces are purged before filling with the appropriate gas. The amount of gas used has been measured sufficient to saturate the solution required.
(§3) Spectrophotometric time-drive, reaction rate, and kinetic analyses: cuvets and serum vials are saturated with gas 40 minutes before the run. A gas-filled syringe is used to retrieve 0.5 ml of enzyme solution to avoid air contact. The 0.5 ml syringe injections of enzyme are made simultaneously to effect a common starting time to for the samples. 7 gases (air, O2, N2, Ne, Ar, Kr, Xe) are run at various temperatures each (from 0° to 60° ). Changes in the rate or final equilibrium of the reaction versus ambient air are recorded. Comparison is also made with added oxygen, and with deoxygenation. Some samples are also prepared under pressure.
In a complete experiment, an enzyme at optimal pH and buffering salt concentration is reacted with 5 substrate concentrations in solution with noble gas at 1 atm. […] Controls are also run after evacuation of solution by vacuum. The reaction is monitored colorimetrically in a scanning spectrophotometer in real time, and the signals are treated mathematically to obtain rate and yield differences. Sample numbers are constant and sufficient to ensure significance of results. All parameters are independently controlled and measured, and more complex experiments are occasionally carried out.

Glucose oxidase = Glucose oxidase (Aspergillus niger, UniProt P13006); assay: Glucose oxidase activity under gas; type: biochemical; conditions: for effect on glucose oxidase: FIG. 28; for effect: minus = inhibition, dependent upon temperature and substrate concentration
Sequence of Glucose oxidase (P13006 17-605): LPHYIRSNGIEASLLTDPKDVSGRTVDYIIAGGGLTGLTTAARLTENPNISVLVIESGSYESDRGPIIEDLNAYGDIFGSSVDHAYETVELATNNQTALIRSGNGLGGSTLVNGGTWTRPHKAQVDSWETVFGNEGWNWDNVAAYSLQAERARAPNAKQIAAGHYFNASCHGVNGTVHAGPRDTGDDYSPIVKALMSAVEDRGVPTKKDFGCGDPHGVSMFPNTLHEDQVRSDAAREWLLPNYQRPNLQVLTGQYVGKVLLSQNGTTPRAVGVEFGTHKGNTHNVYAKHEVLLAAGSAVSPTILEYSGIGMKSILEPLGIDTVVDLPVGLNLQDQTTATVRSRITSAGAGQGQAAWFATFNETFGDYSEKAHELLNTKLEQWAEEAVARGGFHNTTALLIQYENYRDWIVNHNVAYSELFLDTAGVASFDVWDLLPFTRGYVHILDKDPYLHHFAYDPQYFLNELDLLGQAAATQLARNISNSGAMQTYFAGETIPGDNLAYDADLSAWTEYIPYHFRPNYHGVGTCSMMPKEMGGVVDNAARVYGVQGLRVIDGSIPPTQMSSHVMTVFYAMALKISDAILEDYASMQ
Description: as §1, §2, §3

[2] = tested on: Aspartate aminotransferase; assay: Aspartate aminotransferase activity under gas; type: biochemical; conditions: for effect on aspartate aminotransferase: FIG. 30; for effect: minus = inhibition
Description: as §1, §2, §3

β-D-Glucosidase = assay: High pressure experiments, β-D-glucosidase; type: biochemical, Almonds
Description: Experiments were conducted in pressure cells pressurized with additional test gas after solution was already saturated, at 2 atmospheres or at 3 atmospheres in real-time, or after pressurizing in a 1-liter cylinder for 1 hour or ~24 hours at 30.6 atmospheres and at 100 atmospheres.
Rinse the cylinders with copious quantities of D.I. H2 O. Then rinse the cylinders with the second enzyme solution (glucosidase). Place a 25 ml aliquot of enzyme solution into each of 2 disposable gas cylinders. Shake the enzyme in each cylinder for several minutes and then remove a 5 ml sample for Control B and Control C.
Remove cylinders to the dock, gassing with the appropriate gas; bring pressure slowly up to 30.6 atm. Let sit at the required pressure for 60 minutes. Slowly depressurize to 2 psi before bringing into the lab.
Bring the cylinders back to the dock and repressurize to 100 atm with the appropriate gas. Let sit at the required pressure for 60 minutes. Slowly depressurize to 2 psi before bringing into the lab.
Cuvettes were filled for the 2 atm experiments for both enzymes. Each cuvette was gassed 10×10 cc with the appropriate gas and refrigerated for 15 minutes prior to running. Serum vials were filled with 5 cc of the corresponding enzyme and gassed with 10×10 cc of the appropriate gas prior to running. The spectrophotometers were set up such that a continuous flow of each gas could be delivered to each spectro at all times. A 100 psimax gauge was installed to read the cuvette pressure and 2 on/off valves were installed so that the reference cell could be pressurized during the second replicate. A ball valve was installed between the cylinder/house line and the gauge so that gas flow could be controlled directly at the spectrophotometers. A check valve was placed in each line to ensure that a back pressure would not cause contamination of the house lines or the gas cylinders. The cuvettes retained the 2 needles during the entire run. One of the needles was attached to the gas line while the second was used for enzyme introduction and then plugged. Due to the bulky nature of the assembly it was impossible to use the installed doors of the spectrophotometers therefore they were removed. A 4-layer thick black felt cover was prepared for each spectro to minimize the amount of light entering the system.
While the cuvette was equilibrating to temperature in the spectrophotometer both needles remained in the cuvette with 10 cc syringes still attached. Prior to enzyme introduction one of the syringes was removed while the gas line was attached to the needle. A small flow of gas run through the line while this was done to ensure that there was no oxygen contamination. The needles remained above the liquid level. The second syringe was removed to allow constant flow through the cuvette. The enzyme was injected through the second needle using a 1 cc syringe. The needle was then plugged, the cuvette pressurized and the run begun.
A nonpressurized gas run using all four gases was done for each enzyme. Each cuvette was gassed with 10×10 cc of the corresponding gas and refrigerated for 15 minutes. The 2 needles used for gassing the cuvettes were removed when the cuvettes were placed into the spectrophotometer. Enzyme was introduced into the cuvettes using a 1 cc syringe with a 20G11/2 needle attached. The needle was placed into the cuvette through the silicone plug but not immersed into the liquid. This was to ensure that enzyme introduction into the cuvette was the same as for the pressurized gas run.
The same method as used in Trial 2 on Apr. 30, 1991 was used for this trial.
At 3 atmospheres pressure, the degree of enhancement observed was changed as follows: […]

[3] = optimized enzyme concentration, first value column
[4] = optimized enzyme concentration, second value column
[5] = optimized enzyme concentration, third value column
[6] = suboptimal enzyme concen., first value column
[7] = suboptimal enzyme concen., second value column
[8] = suboptimal enzyme concen., third value column
[9] = at 3 atmospheres pressure (value after the > sign), minus = inhibition
[10] = before pressurization (value before the > sign)

SMILES | effect on phenylalanine ammonia lyase [1, 3] | effect on phenylalanine ammonia lyase [1, 4] | effect on phenylalanine ammonia lyase [1, 5] | effect on phenylalanine ammonia lyase [1, 6] | effect on phenylalanine ammonia lyase [1, 7] | effect on phenylalanine ammonia lyase [1, 8] | effect on glucose oxidase (Glucose oxidase) | effect (Glucose oxidase) [%] | effect on aspartate aminotransferase [2] | effect [2] [%] | degree of enhancement observed (β-D-Glucosidase; [9]) | degree of enhancement observed (β-D-Glucosidase; [10]) | effect on phenylalanine ammonia-lyase [1] | effect on β-glucosidase (β-D-Glucosidase; 30 atm. pressure, FIG. 38) | effect on β-glucosidase (β-D-Glucosidase; 100 atm. pressure, 25° C., FIG. 37)
[Ar] [Ar, argon] | +6 | +1 | +3 | -1 | +1 | +6.5 | inhibition | -85.8 | inhibition | -17 | -13.2 | +1.0 | – | – | –
[Kr] [Kr, krypton] | +7 | +4 | +4 | +3 | +18 | +14 | inhibition | -92.7 | inhibition | -82 | -6.2 | +2.0 | – | – | –
N#N [N2, nitrogen, reference compound] | +19 | 0 | +6 | 0 | 0 | +12 | inhibition | – | – | – | -5.0 | 0 | enhancement | inhibitory effect | inhibitory effect
[Ne] [Ne, neon] | -2 | +6 | -6 | +15 | 0 | +6 | inhibition | -61.7 | – | -12 | -12.5 | +1.0 | enhancement | – | –
[Xe] [Xe, xenon] | +18 | +3 | +5 | +14 | +8 | +11 | inhibition | -91.6 | inhibition | -17 | -15.7 | +3.1 | – | – | –
